The results in this text go back to patent EP0729957A1, “PYRIDINE COMPOUND AND MEDICINAL USE THEREOF” (YOSHITOMI PHARMACEUTICAL INDUSTRIES, LTD., priority 1993, dated 1995).

One assay deals with Helicobacter pylori. The assay is described as follows: Antibacterial activity (in vitro) against Helicobacter pylori, agar dilution MIC. Type of assay: cell-based. As to conditions: clinical isolates (18 strains), agar plate, 37°C, 8% CO2, 3-4 days; for MIC50: minimum concentration necessary for inhibiting growth by 50%; for MIC90: minimum concentration necessary for inhibiting growth by 90%. For orientation: In agar dilution, organisms are placed on agar that contains the substance at set levels.

The test system of a further assay is gastric acid secretion. Briefly: Action on gastric acid secretion of rats subjected to gastroperfusion (histamine-induced). The class given is in vivo. The note with it: 3 mg/kg i.v., 5 minutes before histamine hydrochloride (1 mg/kg i.v.); urethane-anesthetized Wistar rats. As to the method: Experimental Example 2: Action on gastric acid secretion of rats subjected to gastroperfusion
The experiment was done according to the method of Ghosh et al, Br. J. Pharmacol. 13, p 54 (1958). Wistar rats were fasted for 20 hours and anesthetized with urethane (1.5 g/kg, subcutaneous). A polyethylene tube for injection and discharge for gastroperfusion was attached to the rats. Gastroperfusion was performed using physiological saline (37°C) at a speed of 7 ml/min and the perfusate was recovered at 10-min intervals. Histamine hydrochloride (1 mg/kg) was intravenously administered at 1-hr intervals to induce secretion of gastric acid. A test solution containing the test compound was intravenously administered 5 minutes before the histamine hydrochloride administration. The acidity of the gastric acid was titrated up to pH 7.0 with an automatic titrator and percent suppression of gastric acid secretion by the test compound was determined.

The mark [1] stands for this setting: Helicobacter pylori, read-out: MIC50.
The mark [2] stands for this setting: Helicobacter pylori, read-out: MIC90.

Where a name gives a salt, the structure may show the parent alone. Read-outs that look alike come from different tables or passages of the source.

For the molecule `COCCOCCOCCSc1ccnc(CSc2nc3ccccc3[nH]2)c1C` [Example 21, 2-((3-methyl-4-(2-(2-(2-methoxyethoxy)ethoxy)ethylthio)-2-pyridyl)methylthio)-1H-benzimidazole·hydrochloride], the MIC50 in the assay on Helicobacter pylori (setting [1]) was found to be 0.012 µg/mL. Also, the MIC90 in the assay on Helicobacter pylori (setting [2]) amounted to 0.025 µg/mL. For the molecule “2-((3-methyl-4-(2-(2-methoxypolyethoxy)ethylthio)-2-pyridyl)methylthio)-1H-benzimidazole·hydrochloride [Example 22]”, in the assay with Helicobacter pylori, the MIC50 is 0.025 µg/mL and the MIC90 turned out to be 0.025 µg/mL. Consider “2-((3-methyl-4-(2-(2-methoxpolyethoxy)ethylthio)-2-pyridyl)methylsulfinyl)-1H-benzimidazole [Example 25]”, for which the “Suppression (%)” value in the assay on gastric acid secretion was 100%.

Consider `COCCOCCSc1ccnc(CSc2nc3ccccc3[nH]2)c1C` [Example 17, 2-((3-methyl-4-(2-(2-methoxyethoxy)ethylthio)-2-pyridyl)methylthio)-1H-benzimidazole·hydrochloride], for which, in the assay on Helicobacter pylori (setting [1]), the MIC50 worked out at 0.025 µg/mL. The MIC90 with Helicobacter pylori (setting [2]) is 0.05 µg/mL. Take “2-((3-methyl-4-(2-methoxypolyethoxy)-2-pyridyl) methylsulfinyl)-1H-benzimidazole [Example 26]”: in the assay with gastric acid secretion, the “Suppression (%)” value is listed as 50%.

As usually defined, the MIC50 is an inhibitory concentration at the 50% level, which refers to growth in some studies and to a panel of isolates in others. The MIC90 is the lowest concentration that inhibits either 90% of growth or 90% of the strains tested, depending on the study.
